Data published in PubChem BioAssay AID1918940 (Molecular Pharmacology Branch, DTP, NCI, 2023).
“And” between values parts separate entries of the source, which are not always exact repeats. Equal entries are not always repeated.

Test system: NCI-H211 complex spheroid viability
Assay: Anticancer human tumor NCI-H211 cell line growth inhibition [LSD1];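 note: luminescent viability read after seven days of drug exposure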;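 for viability, T/C: 100% = DMSO vehicle control viability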
Conditions: for viability, T/C: stronger effect = lower value
Outline: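 Complex spheroids of tumor cells with HUVEC and human MSCs, exposed to iadademstat combined with other agents. Each agent tested in half-log steps from near clinical Cmax (else 10 microM top), DMSO ≤0.25%.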

[1] = curve of first compound, second compound 0.1 µM
[2] = curve of first compound, second compound 0.316 µM
[3] = curve of first compound, second compound 1 µM
[4] = curve of first compound, second compound 3.16 µM
[5] = curve of first compound, second compound 10 µM
[6] = second compound 0.1 µM, first compound 0.00316 µM
[7] = second compound 0.1 µM, first compound 0.01 µM
[8] = second compound 0.1 µM, first compound 0.0316 µM
[9] = second compound 0.1 µM, first compound 0.1 µM
[10] = second compound 0.1 µM, first compound 0.316 µM
[11] = second compound 0.1 µM, first compound 1 µM
[12] = second compound 0.316 µM, first compound 0.00316 µM
[13] = second compound 0.316 µM, first compound 0.01 µM
[14] = second compound 0.316 µM, first compound 0.0316 µM
[15] = second compound 0.316 µM, first compound 0.1 µM
[16] = second compound 0.316 µM, first compound 0.316 µM
[17] = second compound 0.316 µM, first compound 1 µM
[18] = second compound 1 µM, first compound 0.00316 µM
[19] = second compound 1 µM, first compound 0.01 µM
[20] = second compound 1 µM, first compound 0.0316 µM
[21] = second compound 1 µM, first compound 0.1 µM
[22] = second compound 1 µM, first compound 0.316 µM
[23] = second compound 1 µM, first compound 1 µM
[24] = second compound 3.16 µM, first compound 0.00316 µM
[25] = second compound 3.16 µM, first compound 0.01 µM
[26] = second compound 3.16 µM, first compound 0.0316 µM
[27] = second compound 3.16 µM, first compound 0.1 µM
[28] = second compound 3.16 µM, first compound 0.316 µM
[29] = second compound 3.16 µM, first compound 1 µM
[30] = second compound 10 µM, first compound 0.00316 µM
[31] = second compound 10 µM, first compound 0.01 µM
[32] = second compound 10 µM, first compound 0.0316 µM
[33] = second compound 10 µM, first compound 0.1 µM
[34] = second compound 10 µM, first compound 0.316 µM
[35] = second compound 10 µM, first compound 1 µM
[36] = second compound 0.1 µM, first compound 0.00949 µM
[37] = second compound 0.1 µM, first compound 0.03 µM
[38] = second compound 0.1 µM, first compound 0.0949 µM
[39] = second compound 0.1 µM, first compound 0.3 µM
[40] = second compound 0.1 µM, first compound 0.949 µM
[41] = second compound 0.1 µM, first compound 3 µM
[42] = second compound 0.316 µM, first compound 0.00949 µM
[43] = second compound 0.316 µM, first compound 0.03 µM
[44] = second compound 0.316 µM, first compound 0.0949 µM
[45] = second compound 0.316 µM, first compound 0.3 µM
[46] = second compound 0.316 µM, first compound 0.949 µM
[47] = second compound 0.316 µM, first compound 3 µM
[48] = second compound 1 µM, first compound 0.00949 µM
[49] = second compound 1 µM, first compound 0.03 µM
[50] = second compound 1 µM, first compound 0.0949 µM
[51] = second compound 1 µM, first compound 0.3 µM
[52] = second compound 1 µM, first compound 0.949 µM
[53] = second compound 1 µM, first compound 3 µM
[54] = second compound 3.16 µM, first compound 0.00949 µM
[55] = second compound 3.16 µM, first compound 0.03 µM
[56] = second compound 3.16 µM, first compound 0.0949 µM
[57] = second compound 3.16 µM, first compound 0.3 µM
[58] = second compound 3.16 µM, first compound 0.949 µM
[59] = second compound 3.16 µM, first compound 3 µM
[60] = second compound 10 µM, first compound 0.00949 µM
[61] = second compound 10 µM, first compound 0.03 µM
[62] = second compound 10 µM, first compound 0.0949 µM
[63] = second compound 10 µM, first compound 0.3 µM
[64] = second compound 10 µM, first compound 0.949 µM
[65] = second compound 10 µM, first compound 3 µM

SMILES: CC1COCCN1c1cc(-c2ccnn2C)c2ccnc(-c3ccn[nH]3)c2n1 (configuration not stated) + NC1CCC(NC2CC2c2ccccc2)CC1
- IC50 [1]: < 3.16 nM
- IC50 [2]: 3.54 nM
- IC50 [3]: 3.26 nM
- IC50 [4]: < 3.16 nM
- IC50 [5]: < 3.16 nM
- viability, T/C [6]: 47%
- viability, T/C [7]: 15.9%
- viability, T/C [8]: 3.03%
- viability, T/C [9]: 1.88%
- viability, T/C [10]: 1.99%
- viability, T/C [11]: 1.97%
- viability, T/C [12]: 54.4%
- viability, T/C [13]: 12.7%
- viability, T/C [14]: 5.04%
- viability, T/C [15]: 2.3%
- viability, T/C [16]: 1.83%
- viability, T/C [17]: 2.11%
- viability, T/C [18]: 51.1%
- viability, T/C [19]: 14.4%
- viability, T/C [20]: 3.22%
- viability, T/C [21]: 2.14%
- viability, T/C [22]: 1.98%
- viability, T/C [23]: 2.52%
- viability, T/C [24]: 39.7%
- viability, T/C [25]: 13.1%
- viability, T/C [26]: 2.82%
- viability, T/C [27]: 2.03%
- viability, T/C [28]: 1.63%
- viability, T/C [29]: 2.4%
- viability, T/C [30]: 18.2%
- viability, T/C [31]: 3.8%
- viability, T/C [32]: 1.39%
- viability, T/C [33]: 1%
- viability, T/C [34]: 0.87%
- viability, T/C [35]: 1.21%

SMILES: CCN(c1cc(-c2ccc(CN3CCOCC3)cc2)cc(C(=O)NCc2c(C)cc(C)[nH]c2=O)c1C)C1CCOCC1 + NC1CCC(NC2CC2c2ccccc2)CC1
- IC50 [1]: > 3000 nM
- IC50 [2]: > 3000 nM
- IC50 [3]: > 3000 nM
- IC50 [4]: 3000 nM
- IC50 [5]: < 9.49 nM
- viability, T/C [36]: 76%
- viability, T/C [37]: 60.9%
- viability, T/C [38]: 66.9%
- viability, T/C [39]: 50.1%
- viability, T/C [40]: 56.8%
- viability, T/C [41]: 64.2%
- viability, T/C [42]: 66.3%
- viability, T/C [43]: 68.5%
- viability, T/C [44]: 72.2%
- viability, T/C [45]: 59.9%
- viability, T/C [46]: 55.1%
- viability, T/C [47]: 60%
- viability, T/C [48]: 60.3%
- viability, T/C [49]: 63.8%
- viability, T/C [50]: 55.4%
- viability, T/C [51]: 63.7%
- viability, T/C [52]: 58.3%
- viability, T/C [53]: 59.1%
- viability, T/C [54]: 60%
- viability, T/C [55]: 48.4%
- viability, T/C [56]: 54.3%
- viability, T/C [57]: 49.9%
- viability, T/C [58]: 48.7%
- viability, T/C [59]: 54.9%
- viability, T/C [60]: 40.4%
- viability, T/C [61]: 33.3%
- viability, T/C [62]: 30.8%
- viability, T/C [63]: 26%
- viability, T/C [64]: 21.1%
- viability, T/C [65]: 23.7%

SMILES: O=C(C=Cc1cccc(S(=O)(=O)Nc2ccccc2)c1)NO + NC1CCC(NC2CC2c2ccccc2)CC1
- IC50 [1]: < 9.49 nM
- IC50 [2]: < 9.49 nM
- IC50 [3]: < 9.49 nM
- IC50 [4]: < 9.49 nM
- IC50 [5]: < 9.49 nM
- viability, T/C [36]: 15.1%
- viability, T/C [37]: 3.51%
- viability, T/C [38]: 2.43%
- viability, T/C [39]: 1.81%
- viability, T/C [40]: 0.5%
- viability, T/C [41]: 0.09%
- viability, T/C [42]: 18.4%
- viability, T/C [43]: 3.02%
- viability, T/C [44]: 8.25%
- viability, T/C [45]: 1.92%
- viability, T/C [46]: 1.26%
- viability, T/C [47]: 0.1%
- viability, T/C [48]: 17.3%
- viability, T/C [49]: 3.31%
- viability, T/C [50]: 4.77%
- viability, T/C [51]: 1.92%
- viability, T/C [52]: 3.19%
- viability, T/C [53]: 5.1%
- viability, T/C [54]: 11.6%
- viability, T/C [55]: 2.91%
- viability, T/C [56]: 4.81%
- viability, T/C [57]: 2.66%
- viability, T/C [58]: 0.27%
- viability, T/C [59]: 0.1%
- viability, T/C [60]: 9.56%
- viability, T/C [61]: 2.44%
- viability, T/C [62]: 2.03%
- viability, T/C [63]: 1.32%
- viability, T/C [64]: 0.15%
- viability, T/C [65]: 0.17%

SMILES: Nc1ncn(C2CC(O)C(CO)O2)c(=O)n1 (configuration not stated)
- viability, T/C (compound 0.00316 µM): 35.4% and 37.7%
- viability, T/C (compound 0.01 µM): 21.4% and 19%
- viability, T/C (compound 0.0316 µM): 9.11% and 7%
- viability, T/C (compound 0.1 µM): 2.47% and 4.09%
- viability, T/C (compound 0.316 µM): 1.77% and 5.19%
- viability, T/C (compound 1 µM): 1.67% and 4.71%
- IC50 (curve of compound): < 3.16 nM

SMILES: CC(C)c1c(-c2ccccc2)nc2c(C#N)c[nH]n2c1=O + NC1CC1c1ccc(-c2cccc(O)c2)cc1
- IC50 [1]: 6120 nM
- IC50 [2]: 6660 nM
- IC50 [3]: 2930 nM
- IC50 [4]: 6420 nM
- IC50 [5]: 3800 nM
- viability, T/C [8]: 86.7%
- viability, T/C [9]: 66.5%
- viability, T/C [10]: 70.5%
- viability, T/C [11]: 66%
- viability, T/C (second compound 0.1 µM, first compound 3.16 µM): 54.9%
- viability, T/C (second compound 0.1 µM, first compound 10 µM): 45.3%
- viability, T/C [14]: 73.7%
- viability, T/C [15]: 75.5%
- viability, T/C [16]: 69.9%
- viability, T/C [17]: 61.9%
- viability, T/C (second compound 0.316 µM, first compound 3.16 µM): 63.1%
- viability, T/C (second compound 0.316 µM, first compound 10 µM): 43.9%
- viability, T/C [20]: 74.3%
- viability, T/C [21]: 64.2%
- viability, T/C [22]: 63.4%
- viability, T/C [23]: 69.8%
- viability, T/C (second compound 1 µM, first compound 3.16 µM): 48.7%
- viability, T/C (second compound 1 µM, first compound 10 µM): 37.5%
- viability, T/C [26]: 83.6%
- viability, T/C [27]: 57.1%
- viability, T/C [28]: 74.8%
- viability, T/C [29]: 63.5%
- viability, T/C (second compound 3.16 µM, first compound 3.16 µM): 59.6%
- viability, T/C (second compound 3.16 µM, first compound 10 µM): 44.3%
- viability, T/C [32]: 52.1%
- viability, T/C [33]: 62.4%
- viability, T/C [34]: 64.5%
- viability, T/C [35]: 58.8%
- viability, T/C (second compound 10 µM, first compound 3.16 µM): 47.2%
- viability, T/C (second compound 10 µM, first compound 10 µM): 41.7%

SMILES: O=C(C=Cn1cnc(-c2cc(C(F)(F)F)cc(C(F)(F)F)c2)n1)NNc1cnccn1 + NC1CC1c1ccc(-c2cccc(O)c2)cc1
- IC50 [1]: < 3.16 nM
- IC50 [2]: < 3.16 nM
- IC50 [3]: < 3.16 nM
- IC50 [4]: < 3.16 nM
- IC50 [5]: < 3.16 nM
- viability, T/C [6]: 45.6%
- viability, T/C [7]: 35.5%
- viability, T/C [8]: 16.3%
- viability, T/C [9]: 6.54%
- viability, T/C [10]: 2.54%
- viability, T/C [11]: 2.3%
- viability, T/C [12]: 29.8%
- viability, T/C [13]: 29%
- viability, T/C [14]: 14.4%
- viability, T/C [15]: 6.98%
- viability, T/C [16]: 2.61%
- viability, T/C [17]: 2.22%
- viability, T/C [18]: 38.4%
- viability, T/C [19]: 32.6%
- viability, T/C [20]: 12.8%
- viability, T/C [21]: 6.89%
- viability, T/C [22]: 3.1%
- viability, T/C [23]: 2.61%
- viability, T/C [24]: 47.7%
- viability, T/C [25]: 29.5%
- viability, T/C [26]: 16.6%
- viability, T/C [27]: 7.35%
- viability, T/C [28]: 3.74%
- viability, T/C [29]: 2.99%
- viability, T/C [30]: 40.6%
- viability, T/C [31]: 28.6%
- viability, T/C [32]: 17.8%
- viability, T/C [33]: 9.12%
- viability, T/C [34]: 3.24%
- viability, T/C [35]: 3.79%
